Measured values reported in BigSolDB 2.1.

CC(C)(C)OC(=O)N[C@@H](CCC(N)=O)C(=O)O
solubility (mole fraction)
Conditions | 283.15 K | 288.15 K | 293.15 K | 298.15 K | 303.15 K | 308.15 K | 313.15 K | 318.15 K | 323.15 K
in 2-butanone | 0.0208 | 0.0219 | 0.0247 | 0.0294 | 0.035 | 0.0408 | 0.0517 | 0.068 | 0.0995
in acetone | 0.0586 | 0.0675 | 0.0797 | 0.0959 | 0.105 | 0.127 | 0.146 | 0.168 | 0.187
in acetonitrile | 0.00293 | 0.00389 | 0.00493 | 0.0064 | 0.008 | 0.0113 | 0.0165 | 0.0243 | 0.0356
in ethanol | 0.13 | 0.139 | 0.148 | 0.155 | 0.165 | 0.177 | 0.191 | 0.202 | –
in ethyl acetate | 0.00199 | 0.00241 | 0.00301 | 0.00377 | 0.00475 | 0.00596 | 0.00774 | 0.0102 | 0.0145
in isobutanol | 0.0317 | 0.0398 | 0.0479 | 0.055 | 0.0676 | 0.0766 | 0.0843 | 0.0943 | 0.108
in isopropanol | 0.0536 | 0.0626 | 0.0789 | 0.0922 | 0.108 | 0.124 | 0.153 | 0.175 | 0.198
in methyl acetate | 0.00534 | 0.00588 | 0.00699 | 0.00843 | 0.0115 | 0.0173 | 0.0254 | 0.0393 | 0.0649
in n-butanol | 0.0427 | 0.0487 | 0.0554 | 0.0649 | 0.0748 | 0.0924 | 0.119 | 0.146 | –
in n-pentanol | 0.0343 | 0.0352 | 0.0382 | 0.0417 | 0.0481 | 0.0573 | 0.07 | 0.0946 | –
in n-propanol | 0.057 | 0.0698 | 0.0803 | 0.0938 | 0.116 | 0.135 | 0.162 | 0.207 | –
in water | 0.00718 | 0.00807 | 0.00935 | 0.0126 | 0.0205 | 0.0307 | 0.0554 | 0.0905 | –
